Assay results published in patent publication US7915272B2 (priority 2006, dated 2011).
Structures can show the parent of a compound that is named as a salt.

Molecular target: α7-subtype of nicotinic receptors (Rattus norvegicus, UniProt Q05941)
Experiment: biochemical
Format: binding

α7-subtype of nicotinic receptors, sequence (Q05941 23-502): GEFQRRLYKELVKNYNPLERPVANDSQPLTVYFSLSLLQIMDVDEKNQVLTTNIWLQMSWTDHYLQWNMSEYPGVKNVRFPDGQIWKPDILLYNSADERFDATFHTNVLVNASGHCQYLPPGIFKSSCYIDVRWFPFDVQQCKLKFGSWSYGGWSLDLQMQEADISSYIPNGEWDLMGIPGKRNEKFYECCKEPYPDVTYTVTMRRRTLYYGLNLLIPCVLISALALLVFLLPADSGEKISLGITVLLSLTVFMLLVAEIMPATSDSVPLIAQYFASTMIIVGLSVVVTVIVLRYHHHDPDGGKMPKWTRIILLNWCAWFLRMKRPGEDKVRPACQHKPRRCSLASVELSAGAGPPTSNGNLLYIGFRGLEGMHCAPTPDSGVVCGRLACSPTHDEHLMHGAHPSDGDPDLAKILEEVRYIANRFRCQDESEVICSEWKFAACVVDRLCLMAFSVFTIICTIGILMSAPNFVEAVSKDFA

O=C(Nc1cnc(N2CCN3CCC2CC3)nc1)c1ccccc1F [Compound 1, N-[2-(1,4-Diaza-bicyclo[3.2.2]non-4-yl)-pyrimidin-5-yl]-2-fluoro-benzamide hydrochloric acid salt]
IC50: < 0.1 µM
